Assay results as given in publication PMC5854716, “Synthesis, molecular docking, ctDNA interaction, DFT calculation and evaluation of antiproliferative and anti-Toxoplasma gondii activities of 2,4-diaminotriazine-thiazole derivatives” (Medicinal Chemistry Research, 2018).
≈ marks a conversion by molar mass, not a printed value.

How the values were obtained:
[1] = test system: Toxoplasma gondii BK strain; test: T. gondii tachyzoite intracellular proliferation in VERO host cells ([3H]uracil incorporation); assay type: cell-based; conditions: Toxoplasma gondii
Description: The epithelial cell line VERO (ATCC-Catalog No. CCL-81^TM), derived from the kidney of the African green monkey, Cercopithecus aethiops and fibroblast cell line L-929 (ATCC-Catalog No. CCL-1^TM), derived from Mus musculus (http://www.atcc.org) were grown in Iscoves’s Modified Dulbecco’s Medium (IMDM) supplemented with 10% (v/v) fetal bovine serum (FBS), plus 2 mM L-glutamine, 100 U/ml penicillin, 100.00 µg/ml streptomycin, 5 × 10^−5 M 2-mercaptoethanol and maintained at 37 °C in a 10% CO2 atmosphere. Subcultures were performed via enzymatic cell dissociation in 0.25% trypsin. After dissociation, the cells were placed in culture medium at 4 °C with 10% FBS to inhibit the action of trypsin. The isolated cells were centrifuged for 10 min at 1000×g at 4 °C, and the cells were grown in new bottles. This procedure was repeated when cells reached a confluence of ~90%. All commercial reactants and solvents were purchased from either Sigma-Aldrich Laborchemikalien GmbH (Dzitko et al. [2014]).
Suspensions of the compounds 4a–l were freshly prepared (5 mg/ml DMSO) before the cells were exposed, and diluted to appropriate concentrations; 0.9, 1.8, 3.9, 7.8, 15.6, 31.2, 62.5, and 125.00 μg/ml with the culture medium. Cells treated with 2.5% DMSO-solvent served as a control in each experiment.
Stock solutions of the Sulfadiazine (100 mg/ml 1 N NaOH; Catalog No. S8626) was freshly prepared before each experiment, and diluted to appropriate concentrations: 5.00, 25.00, 50.00, 125.00, 250.00, 500.00, 1250.00, and 2500.00 μg/ml, respectively in IMDM complete medium. All commercial reactants and solvents were purchased from either Sigma-Aldrich Laborchemikalien GmbH.
Tachyzoites of T. gondii, BK strain, were maintained in female C57BL/6 (H-2^b) and BALB/c (H-2^d) mice (with genetically determined high and low susceptibility, respectively to Toxoplasma infection) via serial intraperitoneal inoculation of 10^5–10^6 parasites per mouse in phosphate-buffered saline (PBS). After 48 to 96 h, parasites were harvested via peritoneal lavage using PBS, pH 7.2, and centrifuged at 200×g for 5 min to remove blood cells and cell debris. The supernatant containing tachyzoites was collected and centrifuged again at 2000×g for 15 min. The final pellet was resuspended in IMDM, quantified in a Burker’s chamber, and used in experimental assays. Inbred mice were kept under standard laboratory conventional conditions. All experimental procedures were conducted according to guidelines of the 9. Local Ethics Commission for Experiments on Animals in Lodz.
VERO, (2 × 10^4 cells/100 µl/well) were grown in complete medium (IMDM) on 96-well plates. After 24 h incubation, a medium was removed and then T. gondii […] tachyzoites, suspended in culture medium supplemented with 0.9–125.00 μg/ml diaminotriazines 4a–l and as a control-sulfadiazine (5.0–2500.0 μg/ml), were added (2 × 10^5 tachyzoites/200 µl/well) to the cell monolayers. After subsequent 48 h incubation 1 µCi/well of [^3H] uracil (Moravek Biochemicals Inc., Brea, CA, USA) was applied to each microculture for further 18–20 h. The amount of the isotope incorporated into the parasite nucleic acid pool, corresponding to the parasite growth, was measured by liquid scintillation counting with 1450 Microbeta Plus Liquid Scintillation Counter (Wallac Oy, Turku, Finland). The cpms of host cells alone (below 250/microculture) were subtracted from cpms of T. gondii infected microcultures (Dzitko et al. [2014]).

[2] = test system: human breast carcinoma MCF-7 cells; test: In vitro antiproliferative assay (SRB), MCF-7; assay type: cell-based; conditions: 72 h exposure, mean ± SD
Description: (§1) Biphenotypic B myelomonocytic leukemia MV4-11, human lung carcinoma A549, human breast carcinoma MCF-7, and normal mouse fibroblast BALB/3T3 cells were obtained from American Type Culture Collection (Rockville, Maryland, USA). All the cell lines are being maintained at the Institute of Immunology and Experimental Therapy, Wroclaw, Poland. MV4-11 cells were cultured in RPMI 1640 medium (Gibco, UK) with 2 mM L-glutamine adjusted to contain 1.0 mM sodium pyruvate, and 10% fetal bovine serum (FBS) (all from Sigma-Aldrich, Germany). A549 cells were cultured in RPMI 1640+ Opti-MEM (1:1) (both from Gibco, UK), MCF-7 cells in Eagle medium (IIET, Wroclaw, Poland), BALB/3T3 in Dulbecco medium (IIET, Poland) supplemented with 2 mM L-glutamine and 1.0 mM sodium pyruvate, 10% fetal bovine serum (all from Sigma-Aldrich, Germany). The MCF-7 cell culture was supplemented with 0.8 mg/l of insulin (Sigma-Aldrich, Germany). All culture media were supplemented with 100 units/ml penicillin, and 100 µg/ml streptomycin (both from Polfa Tarchomin S.A., Poland). All cell lines were grown at 37 °C with 5% CO2 humidified atmosphere (Łączkowski et al. [2014], [2016a]). Prior to usage, the compounds were dissolved in DMSO and culture medium (1: 9) to the concentration of 1 mg/ml, and subsequently diluted in culture medium to reach the required concentrations (0.1, 1, 10, and 100 µg/ml) (Łączkowski et al. [2014], [2016a]). Twenty-four hours prior to the addition of the tested compounds, the cells counted using Burker hemocytometer were plated in 96-well plates (Sarstedt, Germany) at a density of 1 × 10^4 cells per well. The assay was performed after 72 h of exposure to varying concentrations of the tested agents. The in vitro cytotoxic effect of all agents was examined using the SRB assay for adherent cells (A549, MCF-7, and BALB/3T3) or MTT assay for leukemia cells (MV4-11) as described previously. […] Each compound in each concentration was tested in triplicate in a single experiment, which was repeated 3–7 times (Rubinstein et al. [1990]; Bramson et al. [1995]). Cells were attached to the bottom of plastic wells by fixing them with cold 50% TCA (trichloroacetic acid, POCH, Gliwice, Poland) on top of the culture medium in each well. The plates were incubated at 4 °C for 1 h and then washed five times with tap water. The cellular material fixed with TCA was stained with 0.1% sulforhodamine B (SRB, Sigma-Aldrich, Germany) and dissolved in 1% acetic acid (POCH, Gliwice, Poland) for 30 min. Unbound dye was removed by rinsing (4×) in 1% acetic acid. The protein-bound dye was extracted with 10 mM unbuffered Tris base (Sigma-Aldrich, Germany) for determination of the optical density (λ = 540 nm) in a computer-interfaced, 96-well Synergy H4 (BioTek Instruments USA) photometer microtiter plate reader (Sidoryk et al. [2012]).

[3] = test system: normal mouse fibroblast Balb/3T3 cells; test: In vitro cytotoxicity (SRB), Balb/3T3; assay type: cell-based; conditions: 72 h exposure, mean ± SD
Description: as §1

[4] = test system: human lung carcinoma A549 cells; test: In vitro antiproliferative assay (SRB), A549; assay type: cell-based; conditions: 72 h exposure, mean ± SD
Description: as §1

[5] = test system: biphenotypic B myelomonocytic leukemia MV4-11 cells; test: In vitro antiproliferative assay (MTT), MV4-11; assay type: cell-based, human; conditions: 72 h exposure, mean ± SD
Description: Biphenotypic B myelomonocytic leukemia MV4-11, human lung carcinoma A549, human breast carcinoma MCF-7, and normal mouse fibroblast BALB/3T3 cells were obtained from American Type Culture Collection (Rockville, Maryland, USA). All the cell lines are being maintained at the Institute of Immunology and Experimental Therapy, Wroclaw, Poland. MV4-11 cells were cultured in RPMI 1640 medium (Gibco, UK) with 2 mM L-glutamine adjusted to contain 1.0 mM sodium pyruvate, and 10% fetal bovine serum (FBS) (all from Sigma-Aldrich, Germany). A549 cells were cultured in RPMI 1640+ Opti-MEM (1:1) (both from Gibco, UK), MCF-7 cells in Eagle medium (IIET, Wroclaw, Poland), BALB/3T3 in Dulbecco medium (IIET, Poland) supplemented with 2 mM L-glutamine and 1.0 mM sodium pyruvate, 10% fetal bovine serum (all from Sigma-Aldrich, Germany). The MCF-7 cell culture was supplemented with 0.8 mg/l of insulin (Sigma-Aldrich, Germany). All culture media were supplemented with 100 units/ml penicillin, and 100 µg/ml streptomycin (both from Polfa Tarchomin S.A., Poland). All cell lines were grown at 37 °C with 5% CO2 humidified atmosphere (Łączkowski et al. [2014], [2016a]).
Prior to usage, the compounds were dissolved in DMSO and culture medium (1: 9) to the concentration of 1 mg/ml, and subsequently diluted in culture medium to reach the required concentrations (0.1, 1, 10, and 100 µg/ml) (Łączkowski et al. [2014], [2016a]).
Twenty-four hours prior to the addition of the tested compounds, the cells counted using Burker hemocytometer were plated in 96-well plates (Sarstedt, Germany) at a density of 1 × 10^4 cells per well. The assay was performed after 72 h of exposure to varying concentrations of the tested agents. The in vitro cytotoxic effect of all agents was examined using the SRB assay for adherent cells (A549, MCF-7, and BALB/3T3) or MTT assay for leukemia cells (MV4-11) as described previously. The results were calculated as an inhibitory concentration 50 (IC50)—the concentration of tested agent which inhibits proliferation of 50% of the cancer cell population. Each compound in each concentration was tested in triplicate in a single experiment, which was repeated 3–7 times (Rubinstein et al. [1990]; Bramson et al. [1995]).
Twenty microliter of MTT solution (MTT: 3-(4,5-dimethylthiazol-2-yl)-2,5-diphenyltetrazolium bromide, stock solution: 5 mg/ml) was added to each well and incubated for 4 h. After the incubation time was complete, 80 µl of the lysis mixture was added to each well (lysis mixture: 225 ml dimethylformamide, 67.5 g sodium dodecyl sulfate and 275 ml of distilled water). The optical densities of the samples were read after 24 h on a Synergy H4 (BioTek Instruments USA) photometer microtiter plate reader at 570 nm (Sidoryk et al. [2012]). All of chemicals were obtained from Sigma-Aldrich, Germany.

Row | Structure (SMILES) | activity at 5 µg/mL ([1]; 5.00 µg/ml, VERO host cells) [%] | activity at 25 µg/mL ([1]; 25.00 µg/ml, VERO host cells) [%] | activity at 50 µg/mL ([1]; 50.00 µg/ml, VERO host cells) [%] | activity at 125 µg/mL ([1]; 125.00 µg/ml, VERO host cells (Table 3)) [%] | activity at 250 µg/mL ([1]; 250.00 µg/ml, VERO host cells) [%] | activity at 500 µg/mL ([1]; 500.00 µg/ml, VERO host cells) [%] | activity at 1250 µg/mL ([1]; 1250.00 µg/ml, VERO host cells) [%] | activity at 2500 µg/mL ([1]; 2500.00 µg/ml, VERO host cells) [%] | IC50 ([1]; VERO host cells, GraphPad Prism curves, read-out: IC50 (50% inhibition of T. gondii proliferation in vitro)) [mg/L] | IC50 MCF-7 [2] [mg/L] | IC50 Balb/3T3 [3] [mg/L] | IC50 A549 [4] [mg/L] | IC50 MV4-11 [5] [mg/L]
1 | Nc1ccc(S(=O)(=O)Nc2ncccn2)cc1 [Sulfadiazine, reference compound] | 92 | 80.5 | 70.7 | 55.2 | 52.8 | 41.6 | 39.7 | 39.6 | 1020 (≈ 4.09 mM) | – | – | – | –
2 | N.N.[Cl][Pt][Cl] [cis-platin, reference compound] | – | – | – | – | – | – | – | – | – | 2.33 ± 0.465 | 2.55 ± 0.588 | 2.69 ± 1.119 | 0.22 ± 0.11
